In patent US11458138B2 (Novartis AG, priority 2017, dated 2022) one finds IC50 and EC50 data, which are given here for 13 compounds.

Experiment [1] deals with Phospho-YAP (SER127) in HaCaT cells. Description: pYAP HTRF Assay (HaCaT Cells). Type of experiment: cell-based, human. To be noted: 2 hours. Here is the method: The pYAP HTRF assay was performed using the Phospho-YAP (SER127) 10000 test kit (CisBio, catalogue number 64YAPPEH) according to manufacturer's instructions. Briefly, HaCaT cells were suspended at 1.1×10^6 cells/mL in DMEM (no phenol red)+10% FBS with penicillin-streptomycin-glutamine. 5 μL of cells were dispensed into 1536 well white solid bottom, tissue culture treated plates (5500 cells/well), and incubated for 48 hours at 37° C. 50 nL test compound was transferred into the assay plates containing HaCaT cells using Pintool (GNF) and incubated for 2 hours. […] The plates were incubated overnight (20 hrs) at room temperature covered with metal lids. Plates were read on Pherastar (BMG Labtech) for HTRF (665 nm/620 nm).
(In general: TR-FRET usually uses a lanthanide donor and a delayed reading to cut background.)

For the next experiment, the target named is LATS1 (Homo sapiens (Human), UniProt O95835). Nature of the experiment: LATS1 biochemical assay (Table 1A, Compound Examples 1-290; method in the earlier part).
Experiment [2] relates to YAP nuclear translocation in HaCaT cells. Description: YAP Translocation Assay (HaCaT Cells). In kind it is cell-based, human. To be noted: 24 hours. The method in brief: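 HaCaT cells (20,000/well) in DMEM + 10% FBS were plated overnight at 37° C, then exposed to compound for 24 h at 37° C. Cells were fixed with PFA, permeabilized with 0.1% Triton/1.5% BSA and imaged by high-content imaging.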

SMILES strings stand for the structures. A value given as a limit tells only on which side of the number the result lay.

Chain of LATS1 (O95835 whole entry, looked up): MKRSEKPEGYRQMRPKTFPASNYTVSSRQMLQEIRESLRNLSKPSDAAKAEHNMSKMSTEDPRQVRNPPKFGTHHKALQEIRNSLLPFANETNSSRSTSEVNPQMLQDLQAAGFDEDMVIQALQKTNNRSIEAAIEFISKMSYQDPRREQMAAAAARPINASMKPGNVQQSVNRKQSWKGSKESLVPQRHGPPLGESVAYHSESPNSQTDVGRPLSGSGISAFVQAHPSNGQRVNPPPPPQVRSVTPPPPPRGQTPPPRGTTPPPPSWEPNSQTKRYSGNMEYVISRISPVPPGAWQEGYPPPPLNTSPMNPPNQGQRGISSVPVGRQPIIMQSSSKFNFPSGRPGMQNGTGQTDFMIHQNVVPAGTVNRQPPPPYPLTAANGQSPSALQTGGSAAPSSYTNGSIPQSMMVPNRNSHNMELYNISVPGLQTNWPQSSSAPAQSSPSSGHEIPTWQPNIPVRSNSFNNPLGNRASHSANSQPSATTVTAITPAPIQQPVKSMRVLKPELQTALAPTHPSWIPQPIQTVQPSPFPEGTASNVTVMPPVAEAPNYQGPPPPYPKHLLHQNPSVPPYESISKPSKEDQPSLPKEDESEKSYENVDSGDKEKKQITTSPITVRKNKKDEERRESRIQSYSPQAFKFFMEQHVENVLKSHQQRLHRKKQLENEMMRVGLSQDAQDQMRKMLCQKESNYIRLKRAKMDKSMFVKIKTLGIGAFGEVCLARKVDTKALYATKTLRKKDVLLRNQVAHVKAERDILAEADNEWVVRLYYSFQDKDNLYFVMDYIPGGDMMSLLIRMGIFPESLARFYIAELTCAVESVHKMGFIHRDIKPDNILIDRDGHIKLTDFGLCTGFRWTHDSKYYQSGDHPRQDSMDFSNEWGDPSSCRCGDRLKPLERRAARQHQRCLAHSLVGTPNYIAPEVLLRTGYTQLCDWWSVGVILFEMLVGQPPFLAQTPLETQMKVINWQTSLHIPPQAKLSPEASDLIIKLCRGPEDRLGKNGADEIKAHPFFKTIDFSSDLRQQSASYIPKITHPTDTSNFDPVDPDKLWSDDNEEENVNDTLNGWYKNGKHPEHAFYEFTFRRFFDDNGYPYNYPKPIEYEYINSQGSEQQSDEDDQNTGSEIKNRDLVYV
Chain of LATS1 (Q7L9L4 whole entry partner, looked up): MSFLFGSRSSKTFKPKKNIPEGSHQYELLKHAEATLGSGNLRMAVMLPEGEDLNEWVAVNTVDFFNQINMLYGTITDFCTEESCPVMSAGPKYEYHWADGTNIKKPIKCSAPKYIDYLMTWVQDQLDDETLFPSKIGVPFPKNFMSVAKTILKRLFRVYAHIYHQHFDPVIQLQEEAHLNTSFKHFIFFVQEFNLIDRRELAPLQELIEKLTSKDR

`NCCCCCCNc1nc(-c2ccncc2)nc2cnccc12` [Example 105, N-(6-aminohexyl)-2-(pyridin-4-yl)pyrido[3,4-d]pyrimidin-4-amine]: the IC50 (commonly the concentration at which inhibition is half-maximal) in experiment [1] (Homo sapiens) was 19.9 µM; against LATS1, 0.001 µM. Moreover, the EC50 (usually the concentration giving half of the maximal effect) in experiment [2] (Homo sapiens) is over 20 µM.
As to `CC(C)(CNC(=O)OC(C)(C)C)Nc1nc(-c2ccncc2)nc2cnccc12` [Example 100, Tert-butyl N-(2-methyl-2-{[2-(pyridin-4-yl)pyrido[3,4-d]pyrimidin-4-yl]amino}propyl)carbamate], the figures for the IC50 (in experiment [1] (Homo sapiens); against LATS1) were 11.6 µM and 0.004 µM, respectively. This compound displayed an EC50 in experiment [2] (Homo sapiens) of 4.83 µM.
Consider `CC1CCCC1Nc1nc(-c2ccncc2)nc2cnccc12` (single isomer, unassigned) [Example 17c], for which the values for the IC50 (in experiment [1]; at LATS1) were 4.28 µM and 0.003 µM, respectively. Further, in experiment [2], the EC50 came to 4.68 µM.
For `Cc1n[nH]c(C)c1-c1nc(NC(C)(C)CC(C)(C)O)c2ccncc2n1` [Example 160, 4-{[2-(3,5-dimethyl-1H-pyrazol-4-yl)pyrido[3,4-d]pyrimidin-4-yl]amino}-2,4-dimethylpentan-2-ol], the IC50 turned out to be 6.8 µM in experiment [1] (Homo sapiens) and 0.024 µM at LATS1. Moreover, in experiment [2] (Homo sapiens), the EC50 was over 20 µM.
With `Cn1nccc1-c1nc(NC2(C)CC2)c2ccncc2n1` [Example 172, 2-(1-methyl-1H-pyrazol-5-yl)-N-(1-methylcyclopropyl)pyrido[3,4-d]pyrimidin-4-amine], the concentration for half-maximal inhibition (IC50) in experiment [1] (Homo sapiens) was over 10 µM; on LATS1, 0.017 µM. The compound further yielded an EC50 in experiment [2] (Homo sapiens) of over 20 µM.
`OCC1(Nc2nc(-c3ccncc3)nc3cnccc23)CCCC1` [Example 51, (1-{[2-(pyridin-4-yl)pyrido[3,4-d]pyrimidin-4-yl]amino}cyclopentyl)methanol]: the IC50 in experiment [1] (Homo sapiens) amounted to 57.8 µM; against LATS1, 0.006 µM. The compound further registered an EC50 in experiment [2] (Homo sapiens) of 4.39 µM.
In the same order, the values of `CCCNc1nc(-c2c(C)[nH]c3ncccc23)nc2cnccc12` [Example 142, 2-{2-methyl-1H-pyrrolo[2,3-b]pyridin-3-yl}-N-propylpyrido[3,4-d]pyrimidin-4-amine] are over 100 µM, 0.006 µM and over 28 µM.
With `CC1(Nc2nc(-c3cn[nH]c3)nc3cnccc23)CCC1` [Example 158, N-(1-methylcyclobutyl)-2-(1H-pyrazol-4-yl)pyrido[3,4-d]pyrimidin-4-amine], the half-inhibitory concentration (IC50) in experiment [1] (Homo sapiens) is 11.2 µM; against LATS1, 0.008 µM. In addition, the response in experiment [2] (Homo sapiens) was half-maximal at 6.29 µM (EC50).
In the same order, the values of `CC(C)(CO)Nc1cc(-c2ccncc2F)nc2cnccc12` [Example 282, 2-{[2-(3-fluoropyridin-4-yl)-1,7-naphthyridin-4-yl]amino}-2-methylpropan-1-ol] are 8.27 µM, 0.01 µM and 11.3 µM.
In the case of `COCC(C)(C)Nc1nc(-c2ccncc2Cl)nc2cnccc12` [Example 124, 2-(3-chloropyridin-4-yl)-N-(1-methoxy-2-methylpropan-2-yl)pyrido[3,4-d]pyrimidin-4-amine], the IC50 in experiment [1] (Homo sapiens) turned out to be 8.01 µM; at LATS1, 0.022 µM. For the same compound, the EC50 in experiment [2] (Homo sapiens) stood at 12 µM.
For the compound `CCC(C)(C)Nc1nc(-c2ccncc2)nc2cnccc12` [Example 63, N-(2-methylbutan-2-yl)-2-(pyridin-4-yl)pyrido[3,4-d]pyrimidin-4-amine], the IC50 came to 0.131 µM in experiment [1] (Homo sapiens) and 0.001 µM on LATS1. In experiment [2] (Homo sapiens), a half-maximal response (EC50) required 0.338 µM.
Regarding `CC[C@@H](C)Nc1nc(-c2ccncc2)nc2cnccc12` (single isomer, unassigned) [Example 68b], the IC50 in experiment [1] (Homo sapiens) is 4.27 µM; at LATS1, 0.002 µM. Moreover, the EC50 in experiment [2] (Homo sapiens) turned out to be 2.92 µM.
The matching figures for `CC1(Nc2nc(-c3ccnnc3)nc3cnccc23)CC1` [Example 174, N-(1-methylcyclopropyl)-2-(pyridazin-4-yl)pyrido[3,4-d]pyrimidin-4-amine]: over 10 µM, 0.197 µM and over 20 µM.
